Experimental data taken from patent publication US12268666B2, “Spray-dried dispersions, formulations, and polymorphs of (S)-5-amino-3-(4-((5-fluoro-2-methoxybenzamido)methyl)phenyl)-1-(1,1,1-trifluoropropan-2-yl)-1H-pyrazole-4-carboxamide” (Loxo Oncology, Inc., priority 2018, dated 2025).
Where two headings read alike, the source gives them in different places.

Columns and labels:
371 kinases = test: Kinase selectivity assay (Reaction Biology Wild-Type Kinase Profiler); assay type: biochemical; settings: 1.0 μM compound; ATP close to Km for each enzyme
Method: (§1) Each assay is performed at an ATP concentration close to the Km for each enzyme. […] After co-incubation with a serial dilution of the compound of Formula I, the quantity of ^33P incorporated into a peptide substrate is measured and the data analyzed using standard curve fitting methods.

[1] = Kinetic solubility in FaSSGF, FaSSIF and FeSSIF media; assay type: physicochemical; settings: kinetic from dmso stock
Method: The solubility of the compound of Formula I is also tested under conditions that simulate gut fluids (Fasted State Simulated Intestinal Fluid [FaSSIF], Fed State Simulated Intestinal Fluid [FeSSIF], and Fasted State Simulated Gastric Fluid [FaSSGF]) as shown in Table 9.

TMD8 tumor xenografts = test: Tumor growth in TMD8 human diffuse large B cell lymphoma xenograft model; assay type: in vivo
Method: The human diffuse large B cell lymphoma TMD8 cells are maintained in suspension in RPMI 1640 with 10% Fetal Calf Serum (FCS) and 1% of Glutamax. The cells are transferred to a 50 mL Falcon tube and centrifuged at 1200 rpm for 5 min. The supernatant is removed and the cell pellet resuspended in PBS before being mixed with Matrigel (1/1, v/v). The cell suspension:Matrigel mixture at a final target cell concentration of 40×10^6 cells/mL is kept on ice until the s.c. injections (250 μL/mouse) to maintain the Matrigel solution in a liquid state.
The animals are female BalB/c mice aged 9 weeks-old at the day of injection. The mice are housed in individually ventilated cage racks with HEPA filtered air supply and all materials that contact the immunodeficient animals are steam sterilized. This includes cages, bedding, water and feed. The animal room conditions are set as follows. The temperature is 22±2° C., and the relative humidity is 50±10%. The light/dark cycle is 12 h/12 h, and the air change rate is 12 to 15 cycles/hour of filtered, 100% fresh air. All animals had free access to sterilized water and irradiated controlled food (reference A04CSafe, Augy-France).
The compound of Formula I is formulated in methylcellulose/Tween80/Water (0.6%/0.5%/98.5%; w/w/v). The vehicle for the dosing of control group is methylcellulose/Tween 80/Water (0.6%/0.5%/98.5%; w/w/v), 10 mL/kg. 151.4 mg of the compound of Formula I are weighed and formulated with 50.4 mL of vehicle to obtain a solution at 3 mg/mL of free base. For the 1 mg/mL suspension preparation, 50.1 mg of the compound of Formula I are weighed and solubilized in 50.1 mL of vehicle. […]
Tumor width and length are measured with digital calipers. The tumor volume in mm^3 is calculated by the formula: Volume=0.52×(width)^2×length[…], width and length measured in mm. […]
Tumors are collected from each mouse at Day 28 post the cell injection. […] Tumor weight statistical analysis between each group is determined by a 1-way ANOVA and by 2-Way ANOVA with repeated measures for the mice weight and the tumor volume monitoring, followed by a Dunnett's test. […]

[2] = target: T1, full-length wild type (WT) human BTK (Homo sapiens, UniProt Q06187); test: BTK activity assay, [33P]-ATP incorporation into poly-EY; assay type: biochemical
T1 construct: against full-length wild type (WT) and mutant human BTK enzymes
T1 sequence (Q06187 whole entry): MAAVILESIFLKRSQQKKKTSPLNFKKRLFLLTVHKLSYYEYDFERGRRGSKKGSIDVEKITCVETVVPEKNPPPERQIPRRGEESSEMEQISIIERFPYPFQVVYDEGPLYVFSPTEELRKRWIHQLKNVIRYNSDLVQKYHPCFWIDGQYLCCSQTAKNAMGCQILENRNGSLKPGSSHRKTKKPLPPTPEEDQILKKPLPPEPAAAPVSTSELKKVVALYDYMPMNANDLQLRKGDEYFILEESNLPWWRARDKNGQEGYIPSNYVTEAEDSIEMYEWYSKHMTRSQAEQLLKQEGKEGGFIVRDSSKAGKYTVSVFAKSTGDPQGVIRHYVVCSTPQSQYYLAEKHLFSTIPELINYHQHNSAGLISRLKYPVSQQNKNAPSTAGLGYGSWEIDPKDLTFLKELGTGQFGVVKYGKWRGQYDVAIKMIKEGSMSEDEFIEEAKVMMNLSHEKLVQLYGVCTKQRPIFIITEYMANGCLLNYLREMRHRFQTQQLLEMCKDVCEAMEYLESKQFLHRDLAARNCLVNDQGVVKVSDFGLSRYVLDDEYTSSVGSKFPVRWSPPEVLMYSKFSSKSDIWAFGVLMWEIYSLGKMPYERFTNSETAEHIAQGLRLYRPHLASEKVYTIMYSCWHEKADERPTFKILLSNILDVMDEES
Method: The activity of the compound of Formula I against full-length wild type (WT) and mutant human BTK enzymes is determined by monitoring the incorporation [^33P]-PO4 from [γ-^33P]-ATP into poly-glutamic acid-tyrosine (poly-EY) peptide substrate. The reaction mixtures each contained polyhistidine-tagged BTK enzyme, poly-EY and BTK inhibitor at the appropriate concentrations. The reaction mixtures are incubated for 20 minutes at room temperature after which [[γ-^33P]-ATP (radiochemical concentration 10 μCi/μL) at 10 μM or the ATP Km concentration for each enzyme is added. After 2 hours of incubation at room temperature, the radiolabeled peptide substrate is captured, and incorporated radioactivity is quantified.
as §1

[3] = test system: OCI-Ly10 human B-cell lymphoma cell line xenograft; test: Tumor growth inhibition in OCI-Ly10 xenografts; assay type: in vivo, male NOD SCID mice; settings: for tumor growth during the dosing period: oral, 28 days
Method: A total of 65 male NOD-SCIO mice are used for the study. At the start of the study the animals are aged 6-8 weeks and weighed approximately 21-27 g. Animals are housed in IVC cages (up to 5 per cage) with individual mice identified by tail marking. All animals are allowed free access to a standard certified commercial diet and sanitized water during the study. The holding room is maintained under standard conditions: 20-24° C., 40-70% humidity and a 12 hr light/dark cycle. Animals are randomly assigned to treatment groups. OCI-Lyl0 cells are implanted subcutaneously into the flanks of male NOD SCID mice and allowed to grow to a volume of approximately 150-200 mm^3. […] The formulation used is 0.5% hydroxypropyl methylcellulose. The dosing volume is 10 mL/kg. An individual animal's dose is calculated from the bodyweight recorded on the day of dosing. Animals are dosed for 28 days. Bodyweight and health observation of animals is recorded daily for the duration of dosing.
Tumor volume is measured three times per week during the study.

[4] = FaSSGF (Fasted State Simulated Gastric Fluid), fassgf or other biorelevant, pH 1.6 FaSSGF
[5] = FaSSIF (Fasted State Simulated Intestinal Fluid), pH 6.5 FaSSIF
[6] = FeSSIF (Fed State Simulated Intestinal Fluid), pH 6.5 FeSSIF

Q: For `COc1ccc(F)cc1C(=O)NCc1ccc(-c2nn([C@@H](C)C(F)(F)F)c(N)c2C(N)=O)cc1` [compound of Formula I, (S)-5-amino-3-(4-((5-fluoro-2-methoxybenzamido)methyl)phenyl)-1-(1,1,1-trifluoropropan-2-yl)-1H-pyrazole-4-carboxamide], which “kinases other than BTK with Percent of Control (POC) values less than 50” value (371 kinases) is on record?
A: The value was “only eight of 371 kinases other than BTK”.

Q: And the solubility kinetic at 4 h [1, 4]?
A: The solubility kinetic at 4 h was 22 µg/mL.

Q: And the solubility kinetic at 24 h [1, 4]?
A: The solubility kinetic at 24 h was 24 µg/mL.

Q: What about the solubility kinetic at 4 h [1, 5] of the same compound?
A: The solubility kinetic at 4 h was 23 µg/mL.

Q: What about the solubility kinetic at 24 h [1, 5] of the same compound?
A: The solubility kinetic at 24 h was 20 µg/mL.

Q: And the solubility kinetic at 4 h [1, 6]?
A: The solubility kinetic at 4 h was 44 µg/mL.

Q: And the solubility kinetic at 24 h [1, 6]?
A: Its solubility kinetic at 24 h is 47 µg/mL.

Q: What about the “TGI vs the vehicle treated group” value (TMD8 tumor xenografts; 10 mg/kg oral BID for 14 days) of the same compound?
A: The value was 35%.

Q: What about the “TGI vs the vehicle treated group” value (TMD8 tumor xenografts; 30 mg/kg oral BID for 14 days) of the same compound?
A: Its value is 87%.

Q: And the tolerability (TMD8 tumor xenografts; chronic oral BID administration for 14 days at 10 and 30 mg/kg)?
A: Its tolerability is “well tolerated”.

Q: What about the IC50 ([2]; 10 μM ATP, read-out: IC50) of the same compound?
A: The IC50 was 0.95 nM.

Q: What about the IC50 ([2]; ATP at Km concentration, read-out: IC50 value) of the same compound?
A: The IC50 was 3.15 nM.

Q: And the “tumor growth during the dosing period” value ([3]; 10 mg/kg BID)?
A: The value was “inhibition of tumor growth”.

Q: What about the “tumor size compared with ibrutinib-treated animals” value ([3]; 10 mg/kg BID, p=0.0008, ANOVA with Tukey post-hoc test) of the same compound?
A: The value was “significantly smaller than those from animals treated with ibrutinib”.

Q: What about the “tumor growth during the dosing period” value ([3]; 50 mg/kg BID) of the same compound?
A: Its value is “inhibition of tumor growth”.

Q: What about the “tumor size compared with ibrutinib-treated animals” value ([3]; 50 mg/kg BID, p<0.0001, ANOVA with Tukey post-hoc test) of the same compound?
A: The value was “significantly smaller than those from animals treated with ibrutinib”.

Q: What about the “tumor growth after dosing had stopped” value ([3]; after the 28-day dosing period) of the same compound?
A: Its value is “maintained even after dosing had stopped”.
